Reference: PubChem BioAssay (NCI)
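In this assay, cells in 96-well plates receive the compound at five concentrations for 48 hours. Endpoints are linearly interpolated between the surrounding concentrations. The concentration for 50% growth inhibition is given as GI50. At the TGI there is no net growth.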

Legend:
Assay in all cases: NCI anticancer screen, dose series, 48 h
TK-10 renal = test system: TK-10 renal
NCI/ADR-RES ovarian = test system: NCI/ADR-RES ovarian
NCI-H226 lung = test system: NCI-H226 lung
A498 renal = test system: A498 renal
SF-539 CNS = test system: SF-539 CNS
NCI-H23 lung = test system: NCI-H23 lung
MDA-MB-435 = test system: MDA-MB-435
EKVX NSCLC = test system: EKVX NSCLC
SNB-19 CNS = test system: SNB-19 CNS
OVCAR-4 ovarian = test system: OVCAR-4 ovarian
HS 578T breast = test system: HS 578T breast
NCI-H460 lung = test system: NCI-H460 lung
RPMI-8226 leukemia = test system: RPMI-8226 leukemia
HOP-92 NSCLC = test system: HOP-92 NSCLC
KM12 colon = test system: KM12 colon
SW-620 colon = test system: SW-620 colon
HCT-15 colon = test system: HCT-15 colon
UACC-257 melanoma = test system: UACC-257 melanoma
BT-549 breast = test system: BT-549 breast
HOP-62 NSCLC = test system: HOP-62 NSCLC
SK-OV-3 ovarian = test system: SK-OV-3 ovarian
SK-MEL-28 melanoma = test system: SK-MEL-28 melanoma
LOX IMVI melanoma = test system: LOX IMVI melanoma
A549 NSCLC = test system: A549 NSCLC
SR leukemia = test system: SR leukemia
MDA-MB-231 breast = test system: MDA-MB-231 breast
SF-295 CNS = test system: SF-295 CNS
OVCAR-5 ovarian = test system: OVCAR-5 ovarian
UACC-62 melanoma = test system: UACC-62 melanoma
DU-145 prostate = test system: DU-145 prostate
HL-60(TB) leukemia = test system: HL-60(TB) leukemia
K-562 leukemia = test system: K-562 leukemia
U251 CNS = test system: U251 CNS
M14 melanoma = test system: M14 melanoma
CAKI-1 renal = test system: CAKI-1 renal
OVCAR-3 ovarian = test system: OVCAR-3 ovarian
COLO 205 colon = test system: COLO 205 colon
CCRF-CEM leukemia = test system: CCRF-CEM leukemia
NCI-H522 lung = test system: NCI-H522 lung
OVCAR-8 ovarian = test system: OVCAR-8 ovarian
PC-3 prostate = test system: PC-3 prostate
SF-268 CNS = test system: SF-268 CNS
786-0 renal = test system: 786-0 renal
ACHN renal = test system: ACHN renal
SK-MEL-5 melanoma = test system: SK-MEL-5 melanoma
SK-MEL-2 melanoma = test system: SK-MEL-2 melanoma
HCT-116 colon = test system: HCT-116 colon
SN12C renal = test system: SN12C renal
MCF7 breast = test system: MCF7 breast
IGROV1 ovarian = test system: IGROV1 ovarian
UO-31 renal = test system: UO-31 renal

Molecule Cc1cc2c(cc1Cl)SC(=Nc1ccc(Cl)cc1)N(S(=O)(=O)c1ccc(Br)s1)S2(=O)=O has a GI50 (TK-10 renal) of 19.9 µM, a TGI (TK-10 renal) of 49.6 µM and a GI50 (NCI/ADR-RES ovarian) of 12.2 µM. It also gave a TGI (NCI/ADR-RES ovarian) of 26.5 µM, a GI50 (NCI-H226 lung) of 14 µM and a TGI (NCI-H226 lung) of 47.1 µM. For the same molecule, the GI50 (A498 renal) was 5.02 µM, the TGI (A498 renal) was 26.2 µM and the GI50 (SF-539 CNS) was 2.01 µM. It also gave a TGI (SF-539 CNS) of 9.93 µM, a GI50 (NCI-H23 lung) of 10.8 µM and a TGI (NCI-H23 lung) of 25 µM. The GI50 (MDA-MB-435) was 14.1 µM, the TGI (MDA-MB-435) was 31.3 µM and the GI50 (EKVX NSCLC) was 16.8 µM. The TGI (EKVX NSCLC) was 36.3 µM, the GI50 (SNB-19 CNS) was 13.7 µM and the TGI (SNB-19 CNS) was 46.4 µM. For the same molecule, the GI50 (OVCAR-4 ovarian) was 18.4 µM, the TGI (OVCAR-4 ovarian) was 66.3 µM and the GI50 (HS 578T breast) was 25.3 µM. The TGI (HS 578T breast) was 62.2 µM, the GI50 (NCI-H460 lung) was 35.2 µM and the TGI (NCI-H460 lung) was > 100 µM. The GI50 (RPMI-8226 leukemia) was 3.7 µM, the TGI (RPMI-8226 leukemia) was 21.5 µM and the GI50 (HOP-92 NSCLC) was 12.1 µM. For the same molecule, the TGI (HOP-92 NSCLC) was 46.1 µM, the GI50 (KM12 colon) was 16.2 µM and the TGI (KM12 colon) was 37.7 µM. The GI50 (SW-620 colon) was 24.5 µM, the TGI (SW-620 colon) was > 100 µM and the GI50 (HCT-15 colon) was 11.9 µM. The TGI (HCT-15 colon) was 29.7 µM, the GI50 (UACC-257 melanoma) was 16 µM and the TGI (UACC-257 melanoma) was 38.7 µM. It also gave a GI50 (BT-549 breast) of 19.2 µM, a TGI (BT-549 breast) of 48.8 µM and a GI50 (HOP-62 NSCLC) of 17.8 µM. It also gave a TGI (HOP-62 NSCLC) of 37.4 µM, a GI50 (SK-OV-3 ovarian) of 34.5 µM and a TGI (SK-OV-3 ovarian) of 97.1 µM. The GI50 (SK-MEL-28 melanoma) was 24.6 µM, the TGI (SK-MEL-28 melanoma) was > 100 µM and the GI50 (LOX IMVI melanoma) was 9.26 µM. It also gave a TGI (LOX IMVI melanoma) of 24.3 µM, a GI50 (A549 NSCLC) of 18 µM and a TGI (A549 NSCLC) of 48.7 µM. For the same molecule, the GI50 (SR leukemia) was 5.11 µM, the TGI (SR leukemia) was > 100 µM and the GI50 (MDA-MB-231 breast) was 12.9 µM. The TGI (MDA-MB-231 breast) was 38.9 µM, the GI50 (SF-295 CNS) was 24.7 µM and the TGI (SF-295 CNS) was 60.5 µM. It also gave a GI50 (OVCAR-5 ovarian) of 15.7 µM, a TGI (OVCAR-5 ovarian) of 34.1 µM and a GI50 (UACC-62 melanoma) of 12 µM. The TGI (UACC-62 melanoma) was 25.3 µM, the GI50 (DU-145 prostate) was 13.3 µM and the TGI (DU-145 prostate) was 26.1 µM. The GI50 (HL-60(TB) leukemia) was 22.4 µM, the TGI (HL-60(TB) leukemia) was 46.8 µM and the GI50 (K-562 leukemia) was 16.4 µM. It also gave a TGI (K-562 leukemia) of 77.5 µM, a GI50 (U251 CNS) of 8.57 µM and a TGI (U251 CNS) of 21.4 µM. For the same molecule, the GI50 (M14 melanoma) was 21.9 µM, the TGI (M14 melanoma) was 56.5 µM and the GI50 (CAKI-1 renal) was 19.5 µM. It also gave a TGI (CAKI-1 renal) of 42.2 µM, a GI50 (OVCAR-3 ovarian) of 15 µM and a TGI (OVCAR-3 ovarian) of 31.1 µM. The GI50 (COLO 205 colon) was 17.8 µM, the TGI (COLO 205 colon) was > 100 µM and the GI50 (CCRF-CEM leukemia) was 10.1 µM. The TGI (CCRF-CEM leukemia) was > 100 µM, the GI50 (NCI-H522 lung) was 37.3 µM and the TGI (NCI-H522 lung) was > 100 µM. It also gave a GI50 (OVCAR-8 ovarian) of 18.8 µM, a TGI (OVCAR-8 ovarian) of 46.1 µM and a GI50 (PC-3 prostate) of 12.5 µM. For the same molecule, the TGI (PC-3 prostate) was 27.1 µM, the GI50 (SF-268 CNS) was 32.2 µM and the TGI (SF-268 CNS) was > 100 µM. The GI50 (786-0 renal) was 11.7 µM, the TGI (786-0 renal) was 24.7 µM and the GI50 (ACHN renal) was 9.05 µM. It also gave a TGI (ACHN renal) of 21.1 µM, a GI50 (SK-MEL-5 melanoma) of 13.7 µM and a TGI (SK-MEL-5 melanoma) of 43.3 µM. The GI50 (SK-MEL-2 melanoma) was 35.3 µM, the TGI (SK-MEL-2 melanoma) was > 100 µM and the GI50 (HCT-116 colon) was 14.7 µM. The TGI (HCT-116 colon) was 27.8 µM, the GI50 (SN12C renal) was 14.1 µM and the TGI (SN12C renal) was 32.6 µM. For the same molecule, the GI50 (MCF7 breast) was 46.3 µM, the TGI (MCF7 breast) was > 100 µM and the GI50 (IGROV1 ovarian) was 17.6 µM. The TGI (IGROV1 ovarian) was 55.2 µM, the GI50 (UO-31 renal) was 24.6 µM and the TGI (UO-31 renal) was 61 µM.
